Measurements published in PubChem BioAssay AID2060907 (Molecular Pharmacology Branch, DTP, NCI, 2025).
pIC50: −log10 of the molar value.

Test system: 388556-164-R-J1-PDC complex spheroid viability
Experiment: Anticancer human tumor 388556-164-R-J1-PDC patient-derived colon adenocarcinoma cell line growth inhibition [RAS]
Conditions: for pIC50: curve of first compound; for viability, T/C: stronger effect = lower value
Method in brief: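 Tumour cells grown as complex spheroids with HUVEC endothelial cells and mesenchymal stem cells, treated with RAS pathway inhibitor combinations. Each agent spans half-log steps from near clinical Cmax, or 10 microM where Cmax is unknown.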

[1] = second compound 0.000949 µM, first compound 0.0316 µM
[2] = second compound 0.000949 µM, first compound 0.1 µM
[3] = second compound 0.000949 µM, first compound 0.316 µM
[4] = second compound 0.000949 µM, first compound 1 µM
[5] = second compound 0.003 µM, first compound 0.0316 µM
[6] = second compound 0.003 µM, first compound 0.1 µM
[7] = second compound 0.003 µM, first compound 0.316 µM
[8] = second compound 0.003 µM, first compound 1 µM
[9] = second compound 0.00949 µM, first compound 0.0316 µM
[10] = second compound 0.00949 µM, first compound 0.1 µM
[11] = second compound 0.00949 µM, first compound 0.316 µM
[12] = second compound 0.00949 µM, first compound 1 µM
[13] = second compound 0.03 µM, first compound 0.0316 µM
[14] = second compound 0.03 µM, first compound 0.1 µM
[15] = second compound 0.03 µM, first compound 0.316 µM
[16] = second compound 0.03 µM, first compound 1 µM
[17] = second compound 0.0949 µM, first compound 0.0316 µM
[18] = second compound 0.0949 µM, first compound 0.1 µM
[19] = second compound 0.0949 µM, first compound 0.316 µM
[20] = second compound 0.0949 µM, first compound 1 µM
[21] = second compound 0.3 µM, first compound 0.0316 µM
[22] = second compound 0.3 µM, first compound 0.1 µM
[23] = second compound 0.3 µM, first compound 0.316 µM
[24] = second compound 0.3 µM, first compound 1 µM
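Further: spheroids exposed to compound for 7 days before readout.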
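Wherever viability, T/C is given: 100% = DMSO vehicle control luminescence.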

Cc1nc(N2CCC3(CC2)COC(C)C3N)c(CO)nc1Sc1ccnc(N)c1Cl (centres undefined) + CCn1c(-c2cccnc2C(C)OC)c2c3cc(ccc31)N1CCOC(CC(NC(=O)C(C(C)C)N(C)C(=O)C3(F)CCN(C(=O)C#CC(C)(C)N(C)C)CC3)C(=O)N3CCCC(N3)C(=O)OCC(C)(C)C2)C1
pIC50 (second compound 0.000949 µM): < 5.00 | pIC50 (second compound 0.003 µM): 5.24 | pIC50 (second compound 0.00949 µM): 5.32 | pIC50 (second compound 0.03 µM): 5.24 | pIC50 (second compound 0.0949 µM): 5.40 | pIC50 (second compound 0.3 µM): 5.63 | viability, T/C [1]: 97.1% | viability, T/C [2]: 95.6% | viability, T/C [3]: 77.4% | viability, T/C [4]: 55.2% | viability, T/C (second compound 0.000949 µM, first compound 3.16 µM): 56% | viability, T/C (second compound 0.000949 µM, first compound 10 µM): 47.1% | viability, T/C [5]: 108% | viability, T/C [6]: 93.9% | viability, T/C [7]: 76.7% | viability, T/C [8]: 66.4% | viability, T/C (second compound 0.003 µM, first compound 3.16 µM): 56% | viability, T/C (second compound 0.003 µM, first compound 10 µM): 44.6% | viability, T/C [9]: 91.5% | viability, T/C [10]: 99.9% | viability, T/C [11]: 82.9% | viability, T/C [12]: 61.7% | viability, T/C (second compound 0.00949 µM, first compound 3.16 µM): 57.3% | viability, T/C (second compound 0.00949 µM, first compound 10 µM): 43.7% | viability, T/C [13]: 105% | viability, T/C [14]: 98.7% | viability, T/C [15]: 75.6% | viability, T/C [16]: 63.4% | viability, T/C (second compound 0.03 µM, first compound 3.16 µM): 56.4% | viability, T/C (second compound 0.03 µM, first compound 10 µM): 45.1% | viability, T/C [17]: 90.1% | viability, T/C [18]: 95% | viability, T/C [19]: 75% | viability, T/C [20]: 62.8% | viability, T/C (second compound 0.0949 µM, first compound 3.16 µM): 56% | viability, T/C (second compound 0.0949 µM, first compound 10 µM): 40.5% | viability, T/C [21]: 92.5% | viability, T/C [22]: 86.7% | viability, T/C [23]: 65.2% | viability, T/C [24]: 55.6% | viability, T/C (second compound 0.3 µM, first compound 3.16 µM): 52.4% | viability, T/C (second compound 0.3 µM, first compound 10 µM): 40.1%

C=CC(=O)Nc1cc(Nc2nccc(-c3cn(C)c4ccccc34)n2)c(OC)cc1N(C)CCN(C)C + CCn1c(-c2cc(N3CCN(C)CC3)cnc2C(C)OC)c2c3cc(ccc31)-c1csc(n1)CC(NC(=O)C1CC1C)C(=O)N1CCCC(N1)C(=O)OCC(C)(C)C2
pIC50 (second compound 0.000949 µM): 6.13 | pIC50 (second compound 0.003 µM): 6.32 | pIC50 (second compound 0.00949 µM): 6.38 | pIC50 (second compound 0.03 µM): 7.38 | pIC50 (second compound 0.0949 µM): > 8.50 | pIC50 (second compound 0.3 µM): > 8.50 | viability, T/C (second compound 0.000949 µM, first compound 0.00316 µM): 92.8% | viability, T/C (second compound 0.000949 µM, first compound 0.01 µM): 92.1% | viability, T/C [1]: 93.5% | viability, T/C [2]: 79.8% | viability, T/C [3]: 60.4% | viability, T/C [4]: 46.4% | viability, T/C (second compound 0.003 µM, first compound 0.00316 µM): 91.7% | viability, T/C (second compound 0.003 µM, first compound 0.01 µM): 90.3% | viability, T/C [5]: 75.3% | viability, T/C [6]: 74% | viability, T/C [7]: 56.4% | viability, T/C [8]: 38.1% | viability, T/C (second compound 0.00949 µM, first compound 0.00316 µM): 79.2% | viability, T/C (second compound 0.00949 µM, first compound 0.01 µM): 78.9% | viability, T/C [9]: 65.8% | viability, T/C [10]: 66.4% | viability, T/C [11]: 60.5% | viability, T/C [12]: 28.3% | viability, T/C (second compound 0.03 µM, first compound 0.00316 µM): 62.1% | viability, T/C (second compound 0.03 µM, first compound 0.01 µM): 50.8% | viability, T/C [13]: 54.9% | viability, T/C [14]: 45.8% | viability, T/C [15]: 36.1% | viability, T/C [16]: 27.3% | viability, T/C (second compound 0.0949 µM, first compound 0.00316 µM): 39.4% | viability, T/C (second compound 0.0949 µM, first compound 0.01 µM): 42.7% | viability, T/C [17]: 46.8% | viability, T/C [18]: 33.1% | viability, T/C [19]: 28.2% | viability, T/C [20]: 22.8% | viability, T/C (second compound 0.3 µM, first compound 0.00316 µM): 32.2% | viability, T/C (second compound 0.3 µM, first compound 0.01 µM): 28.5% | viability, T/C [21]: 30.8% | viability, T/C [22]: 25.1% | viability, T/C [23]: 25.7% | viability, T/C [24]: 24%
